The subject of this assay is Streptococcus pyogenes (ATCC# 97-03 14289). The assay can be described thus: Anti-microbial screen (percent inhibition of growth, OD 570 nm). It is filed as cell-based. The settings on record: Conc 0.1776 mg ml. The method, boiled down: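 Frozen stock diluted into 2×THB, compounds in DMSO added at time zero. OD 570 nm read at 0 h to correct for insoluble or coloured compounds and again at 4 h. Percent growth inhibition calculated against blank-corrected solvent controls.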

[1] abbreviates: Spy4H: Streptococcus pyogenes, read at 4 hours, OD 570 nm.
[2] abbreviates: Streptococcus pyogenes, Assay Spy4H, plates read at 570 nm at 0 time and at 4 hours.

The term inhibition of growth denotes how much of the control response was suppressed.

The compound `COCCN(Cc1ccc(O)cc1)/C(=N\c1ccc(Cl)c([N+](=O)[O-])c1)Sc1ccc(C)cc1C` [Cmpd 1063] returned an inhibition of growth at 177.6 µg/mL under setting [1] of 73.8%.

`COCCN(Cc1ccc(O)cc1)/C(=N\c1ccccc1F)Sc1ccc(C)cc1C` [Cmpd 1067] returned an inhibition of growth at 177.6 µg/mL under setting [2] of 53%. On the same count and under the same terms, to `COCCN(Cc1ccc(O)cc1)/C(=N\c1ccc(Cl)c(C(F)(F)F)c1)Sc1ccc(C)cc1C` [Cmpd 1073] belongs 54.4%; to `COCCN(Cc1ccc(O)cc1)/C(=N\c1ccc(F)c(F)c1)Sc1ccc(C)cc1C` [Cmpd 1076], 55.1%. Under setting [1], `COc1cccc(CN(Cc2ccc(O)cc2)/C(=N/c2cc(Cl)cc(Cl)c2)Sc2cccc(C)c2)c1` [Cmpd 1093] had an inhibition of growth at 177.6 µg/mL of 87.1%. In turn, `COc1cccc(CN(Cc2ccc(O)cc2)/C(=N/c2ccc(Cl)c([N+](=O)[O-])c2)Sc2cccc(C)c2)c1` [Cmpd 1103] registered an inhibition of growth at 177.6 µg/mL under setting [1] of 59.5%. The same measure, in the same setting: to `COc1cccc(CN(Cc2ccc(O)cc2)/C(=N/c2cc(C)ccc2OC)Sc2cccc(C)c2)c1` [Cmpd 1109] belongs 57.8%; to `COc1cccc(CN(Cc2ccc(O)cc2)/C(=N/c2ccc(Cl)c(C(F)(F)F)c2)Sc2cccc(C)c2)c1` [Cmpd 1113], 64.3%.

`Cc1cccc(S/C(=N/c2ccc(C(F)(F)F)cc2)N(Cc2ccccc2)Cc2cccc(O)c2)c1` [Cmpd 1127] yielded an inhibition of growth at 177.6 µg/mL under setting [1] of 88.6%. As for `Cc1cccc(S/C(=N\c2ccc(Cl)c(Cl)c2)N(Cc2ccccc2)Cc2cccc(O)c2)c1` [Cmpd 1128], the inhibition of growth at 177.6 µg/mL under setting [2] stood at 51.5%. The compound `Cc1cccc(S/C(=N\c2cc(Cl)cc(Cl)c2)N(Cc2ccccc2)Cc2cccc(O)c2)c1` [Cmpd 1133] had an inhibition of growth at 177.6 µg/mL under setting [1] of 70.1%. In turn, `Cc1cccc(S/C(=N\c2ccc(F)c(Cl)c2)N(Cc2ccccc2)Cc2cccc(O)c2)c1` [Cmpd 1134] showed an inhibition of growth at 177.6 µg/mL under setting [2] of 53.6%. Take `Cc1cccc(S/C(=N/c2ccc(Cl)c([N+](=O)[O-])c2)N(Cc2ccccc2)Cc2cccc(O)c2)c1` [Cmpd 1143]: testing at 177.6 µg/mL under setting [1] gave an inhibition of growth of 97.1%. Compound `Cc1cccc(S/C(=N\c2ccccc2[N+](=O)[O-])N(Cc2ccccc2)Cc2cccc(O)c2)c1` [Cmpd 1146] came in with an inhibition of growth at 177.6 µg/mL under setting [2] of 56.4%. `COc1ccc(C)cc1/N=C(\Sc1cccc(C)c1)N(Cc1ccccc1)Cc1cccc(O)c1` [Cmpd 1149] gave an inhibition of growth at 177.6 µg/mL under setting [1] of 76%. On to `Cc1cccc(S/C(=N/c2ccc(Cl)c(C(F)(F)F)c2)N(Cc2ccccc2)Cc2cccc(O)c2)c1` [Cmpd 1153], for which, under setting [1], the inhibition of growth at 177.6 µg/mL turned out to be 62.7%. Take `Cc1cccc(S/C(=N/c2ccc(OC(F)(F)F)cc2)N(Cc2ccccc2)Cc2cccc(O)c2)c1` [Cmpd 1155]: the inhibition of growth at 177.6 µg/mL under setting [2] came to 49.4%. `Cc1cccc(S/C(=N\c2ccc(F)c(F)c2)N(Cc2ccccc2)Cc2cccc(O)c2)c1` [Cmpd 1156]: the inhibition of growth at 177.6 µg/mL under setting [1] is 59.5%. In the case of `Cc1cccc(S/C(=N\Cc2ccc(F)cc2)N(CCc2ccc(Cl)cc2)Cc2ccc(O)cc2)c1` [Cmpd 1164], 177.6 µg/mL produced 72.2% inhibition of growth under setting [1]. Take `Cc1cccc(S/C(=N\c2ccc(C(F)(F)F)cc2)N(CCc2ccc(Cl)cc2)Cc2ccc(O)cc2)c1` [Cmpd 1167]: the inhibition of growth at 177.6 µg/mL under setting [1] was determined as 94.3%. Same read-out and setting: then `Cc1cccc(S/C(=N\c2ccc(Cl)c([N+](=O)[O-])c2)N(CCc2ccc(Cl)cc2)Cc2ccc(O)cc2)c1` [Cmpd 1183], with 62.7%. With `Cc1cccc(S/C(=N\c2ccccc2[N+](=O)[O-])N(CCc2ccc(Cl)cc2)Cc2ccc(O)cc2)c1` [Cmpd 1186], the inhibition of growth at 177.6 µg/mL under setting [2] amounted to 52.9%. Same read-out and setting: then `Cc1cccc(S/C(=N\c2ccc(Cl)c(C(F)(F)F)c2)N(CCc2ccc(Cl)cc2)Cc2ccc(O)cc2)c1` [Cmpd 1193], with 53.6%. Regarding `Cc1ccc(S/C(=N\c2ccc(Cl)c(C(F)(F)F)c2)N(Cc2ccc(O)cc2)Cc2ccc(Cl)c(Cl)c2)cc1` [Cmpd 1233], testing at 177.6 µg/mL under setting [1] gave an inhibition of growth of 61.5%. The same measure, in the same setting: to `Cc1ccc(S/C(=N\Cc2ccccc2)N(Cc2cccc(O)c2)CC2CCCCC2)c(C)c1` [Cmpd 1241] belongs 68.2%. With `Cc1cccc(C/N=C(\Sc2ccc(C)cc2C)N(Cc2cccc(O)c2)CC2CCCCC2)c1` [Cmpd 1242], under setting [2], the inhibition of growth at 177.6 µg/mL amounted to 54.8%. The same measure, in the same setting: then `Cc1ccc(S/C(=N\Cc2ccc(F)cc2)N(Cc2cccc(O)c2)CC2CCCCC2)c(C)c1` [Cmpd 1244], with 53.8%; and `Cc1ccc(S/C(=N\c2ccc(F)cc2F)N(Cc2cccc(O)c2)CC2CCCCC2)c(C)c1` [Cmpd 1245], with 53.8%. Under setting [1], `Cc1ccc(S/C(=N\c2ccc(F)c(Cl)c2)N(Cc2cccc(O)c2)CC2CCCCC2)c(C)c1` [Cmpd 1254] gave an inhibition of growth at 177.6 µg/mL of 62.1%.

For the compound `CCc1ccc(/N=C(\Sc2ccc(C)cc2C)N(Cc2cccc(O)c2)CC2CCCCC2)cc1` [Cmpd 1260], the inhibition of growth at 177.6 µg/mL under setting [1] is 57.3%. Under setting [2], `CCOc1ccc(/N=C(/Sc2ccc(C)cc2C)N(Cc2cccc(O)c2)CC2CCCCC2)cc1` [Cmpd 1261] returned an inhibition of growth at 177.6 µg/mL of 51.9%. `Cc1ccc(S/C(=N/c2ccc(F)c([N+](=O)[O-])c2)N(Cc2cccc(O)c2)CC2CCCCC2)c(C)c1` [Cmpd 1262] yielded an inhibition of growth at 177.6 µg/mL under setting [1] of 67.2%. As for `Cc1ccc(S/C(=N/c2ccc(Cl)c([N+](=O)[O-])c2)N(Cc2cccc(O)c2)CC2CCCCC2)c(C)c1` [Cmpd 1263], under setting [2], the inhibition of growth at 177.6 µg/mL stood at 56.7%. `Cc1ccc(S/C(=N\c2ccc(Cl)cc2)N(Cc2cccc(O)c2)CC2CCCCC2)c(C)c1` [Cmpd 1265]: testing at 177.6 µg/mL under setting [1] gave an inhibition of growth of 88.3%. As for `Cc1ccc(S/C(=N/c2ccc(Cl)c(C(F)(F)F)c2)N(Cc2cccc(O)c2)CC2CCCCC2)c(C)c1` [Cmpd 1273], the inhibition of growth at 177.6 µg/mL under setting [2] was found to be 52.2%. As for `Cc1ccc(S/C(=N\c2ccc(F)c(F)c2)N(Cc2cccc(O)c2)CC2CCCCC2)c(C)c1` [Cmpd 1276], the inhibition of growth at 177.6 µg/mL under setting [1] came to 57.3%.

For `COCCN(Cc1cccc(O)c1)/C(=N\c1ccccc1F)Sc1ccc(C)cc1C` [compound 107], under setting [1], at 177.6 µg/mL the inhibition of growth was 75.8%.

Source of the values: US20040010036A1, “N,N, -Substituted s-Aryl-Isothioureas, N,N,N, -Substituted s-Aryl-Isothioureas and combinatorial libraries thereof” (priority 2002, published 2004).
